Data from article PMC11079024, “Identification of a family of species-selective complex I inhibitors as potential anthelmintics” (Nature Communications, 2024).
pIC50: −log10 of the molar value. Several values for one entry are separate records, joined by “and”; a condition that tells them apart may be missing. Identical values can stand only once. Like-named read-outs stand apart in the source and are kept apart here.

Legend:
[1] = target: B. taurus (heart) complex I (Bos taurus, UniProt P03887+P17694+P42026); assay: biochemical; format: biochemical
Sequence of B. taurus (heart) complex I (P03887 whole entry): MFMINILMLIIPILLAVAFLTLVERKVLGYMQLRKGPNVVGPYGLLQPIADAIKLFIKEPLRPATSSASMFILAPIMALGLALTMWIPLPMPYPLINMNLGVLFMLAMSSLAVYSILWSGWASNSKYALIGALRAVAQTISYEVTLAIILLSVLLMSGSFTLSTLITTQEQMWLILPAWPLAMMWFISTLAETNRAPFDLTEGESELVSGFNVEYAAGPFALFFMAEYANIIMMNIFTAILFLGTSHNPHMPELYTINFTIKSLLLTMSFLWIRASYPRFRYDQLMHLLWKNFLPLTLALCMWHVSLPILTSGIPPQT
Sequence of B. taurus (heart) complex I (P17694 34-463): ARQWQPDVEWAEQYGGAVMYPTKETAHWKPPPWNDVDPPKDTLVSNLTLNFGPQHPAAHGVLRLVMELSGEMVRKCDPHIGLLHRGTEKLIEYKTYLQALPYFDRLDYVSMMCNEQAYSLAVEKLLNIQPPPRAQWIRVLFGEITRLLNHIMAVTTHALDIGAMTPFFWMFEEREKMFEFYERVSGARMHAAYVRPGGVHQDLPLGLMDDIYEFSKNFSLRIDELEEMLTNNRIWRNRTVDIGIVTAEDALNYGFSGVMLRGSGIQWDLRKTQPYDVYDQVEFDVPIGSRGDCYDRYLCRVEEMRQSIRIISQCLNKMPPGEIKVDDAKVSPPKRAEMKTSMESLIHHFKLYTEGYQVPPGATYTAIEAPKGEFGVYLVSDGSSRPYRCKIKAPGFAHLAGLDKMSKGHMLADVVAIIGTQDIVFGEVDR
Sequence of B. taurus (heart) complex I (P42026 38-216): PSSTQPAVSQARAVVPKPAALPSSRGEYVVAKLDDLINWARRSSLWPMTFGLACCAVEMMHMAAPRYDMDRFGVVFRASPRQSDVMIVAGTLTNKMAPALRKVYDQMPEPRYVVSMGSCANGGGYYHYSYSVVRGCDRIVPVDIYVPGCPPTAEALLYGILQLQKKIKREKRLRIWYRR
Procedure, shortened: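 Complex I activity followed as DCIP reduction (600 nm, 30 s reads, 15 min) with 80 μM NADH and 60 μM decylubiquinone in 25 mM KPi pH 7.5 containing 2 μM antimycin A and 2 mM KCN. Freeze-thawed mouse or bovine heart mitochondria at 0.2 mg/mL; initial-rate percent of solvent control, single-point 100 μM or dose-response.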

[2] = target: C. elegans (N2) complex I (NADH:ubiquinone oxidoreductase) (Caenorhabditis elegans, UniProt P24887+Q93873+Q94360); assay: biochemical; format: biochemical
Sequence of C. elegans (N2) complex I (NADH:ubiquinone oxidoreductase) (Q94360 17-199): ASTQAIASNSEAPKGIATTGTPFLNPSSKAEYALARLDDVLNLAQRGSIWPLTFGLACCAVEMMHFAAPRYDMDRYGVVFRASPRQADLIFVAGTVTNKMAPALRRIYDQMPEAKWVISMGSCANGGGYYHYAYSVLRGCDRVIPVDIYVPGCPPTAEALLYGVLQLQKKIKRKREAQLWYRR
Sequence of C. elegans (N2) complex I (NADH:ubiquinone oxidoreductase) (P24887 whole entry): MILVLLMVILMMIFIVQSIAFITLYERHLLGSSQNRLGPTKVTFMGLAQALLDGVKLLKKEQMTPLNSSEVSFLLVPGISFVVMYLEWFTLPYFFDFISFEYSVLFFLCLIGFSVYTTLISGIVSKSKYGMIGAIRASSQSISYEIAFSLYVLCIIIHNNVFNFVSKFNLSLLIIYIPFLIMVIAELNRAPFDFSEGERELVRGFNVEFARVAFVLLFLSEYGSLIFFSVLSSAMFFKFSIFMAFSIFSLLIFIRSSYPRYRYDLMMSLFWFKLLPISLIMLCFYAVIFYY
Sequence of C. elegans (N2) complex I (NADH:ubiquinone oxidoreductase) (Q93873 31-482): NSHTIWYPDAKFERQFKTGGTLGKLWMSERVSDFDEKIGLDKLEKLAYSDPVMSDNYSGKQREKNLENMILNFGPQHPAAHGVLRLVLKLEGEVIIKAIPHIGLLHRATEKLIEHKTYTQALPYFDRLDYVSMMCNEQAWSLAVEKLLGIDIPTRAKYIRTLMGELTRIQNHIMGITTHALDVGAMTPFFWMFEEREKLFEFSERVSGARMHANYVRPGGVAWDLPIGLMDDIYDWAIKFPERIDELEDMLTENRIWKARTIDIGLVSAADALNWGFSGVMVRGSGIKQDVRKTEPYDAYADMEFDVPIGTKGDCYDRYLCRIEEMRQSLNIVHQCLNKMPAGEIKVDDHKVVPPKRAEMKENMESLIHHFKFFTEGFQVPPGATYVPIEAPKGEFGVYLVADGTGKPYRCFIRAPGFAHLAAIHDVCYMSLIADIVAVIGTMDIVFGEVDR
Procedure, shortened: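 Mitochondria from liquid-cultured adults were freeze-thawed thrice before the 15-min DCIP-coupled NADH oxidation read.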

Cc1nc2ccccc2n1Cc1ccc(Cl)cc1 [STK697993]
Complex I IC50 ~Fold Change ([1]; B. taurus complex I IC50 relative to C. elegans complex I IC50): 2.72
pIC50 ([1]; B. taurus heart mitochondria, estimated from fitted dose-response curves, read-out: B. taurus Complex I IC50): 6.52
B. taurus: C. elegans IC50 Fold Change (Complex I IC50 ~Fold Change) ([1]; complex I IC50 ratio bovine heart / C. elegans): 2.72
IC50 Fold change ([1]; fold-change in IC50 between B. taurus and C. elegans complex I): 2.72
Log IC50 B. taurus complex I ([1]; log10 of IC50 in µM, B. taurus mitochondria): -0.52 µM
remaining activity at 0.0001 µM ([2]; C. elegans mitochondria, 0.0001 µM, Mean, read-out: in vitro complex I activity relative to solvent control): 93.5%
remaining activity at 0.0001 µM ([2]; C. elegans mitochondria, 0.0001 µM, single replicate, read-out: in vitro complex I activity relative to solvent control): 90.1%
remaining activity at 0.0005 µM ([2]; C. elegans mitochondria, 0.0005 µM, Mean, read-out: in vitro complex I activity relative to solvent control): 93.4%
remaining activity at 0.0005 µM ([2]; C. elegans mitochondria, 0.0005 µM, single replicate, read-out: in vitro complex I activity relative to solvent control): 89.1%
remaining activity at 0.001 µM ([2]; C. elegans mitochondria, 0.001 µM, Mean, read-out: in vitro complex I activity relative to solvent control): 92.2%
remaining activity at 0.0025 µM ([2]; C. elegans mitochondria, 0.0025 µM, Mean, read-out: in vitro complex I activity relative to solvent control): 89.9%
remaining activity at 0.005 µM ([2]; C. elegans mitochondria, 0.005 µM, Mean, read-out: in vitro complex I activity relative to solvent control): 93.8%
remaining activity at 0.013 µM ([2]; C. elegans mitochondria, 0.013 µM, Mean, read-out: in vitro complex I activity relative to solvent control): 89.4%
remaining activity at 0.025 µM ([2]; C. elegans mitochondria, 0.025 µM, Mean, read-out: in vitro complex I activity relative to solvent control): 79.6%
remaining activity at 0.025 µM ([2]; C. elegans mitochondria, 0.025 µM, single replicate, read-out: in vitro complex I activity relative to solvent control): 81.1%
remaining activity at 0.063 µM ([2]; C. elegans mitochondria, 0.063 µM, Mean, read-out: in vitro complex I activity relative to solvent control): 59.3%
remaining activity at 0.063 µM ([2]; C. elegans mitochondria, 0.063 µM, single replicate, read-out: in vitro complex I activity relative to solvent control): 58.9%
remaining activity at 0.125 µM ([2]; C. elegans mitochondria, 0.125 µM, Mean, read-out: in vitro complex I activity relative to solvent control): 46.1%
remaining activity at 0.125 µM ([2]; C. elegans mitochondria, 0.125 µM, single replicate, read-out: in vitro complex I activity relative to solvent control): 47%
remaining activity at 0.313 µM ([2]; C. elegans mitochondria, 0.313 µM, Mean, read-out: in vitro complex I activity relative to solvent control): 24.1%
remaining activity at 0.313 µM ([2]; C. elegans mitochondria, 0.313 µM, single replicate, read-out: in vitro complex I activity relative to solvent control): 23.6%
remaining activity at 0.625 µM ([2]; C. elegans mitochondria, 0.625 µM, Mean, read-out: in vitro complex I activity relative to solvent control): 15.5%
remaining activity at 0.625 µM ([2]; C. elegans mitochondria, 0.625 µM, single replicate, read-out: in vitro complex I activity relative to solvent control): 16.8%
remaining activity at 1.5 µM ([2]; C. elegans mitochondria, 1.5 µM, Mean, read-out: in vitro complex I activity relative to solvent control): 6.88%
remaining activity at 3 µM ([2]; C. elegans mitochondria, 3 µM, Mean, read-out: in vitro complex I activity relative to solvent control): 4.54%
remaining activity at 15 µM ([2]; C. elegans mitochondria, 15 µM, Mean, read-out: in vitro complex I activity relative to solvent control): 3.15%
remaining activity at 37.5 µM ([2]; C. elegans mitochondria, 37.5 µM, Mean, read-out: in vitro complex I activity relative to solvent control): 1.66%
remaining activity at 75 µM ([2]; C. elegans mitochondria, 75 µM, Mean, read-out: in vitro complex I activity relative to solvent control): 1.29%
remaining activity at 0.0001 µM ([2]; dose 0.0001 µM, wild-type C. elegans, mean of replicates, read-out: in vitro complex I activity relative to solvent control, Mean): 93.5%
in vitro complex I activity relative to solvent control, individual replicate ([2]; dose 0.0001 µM, wild-type C. elegans, single replicate): 99.582% and 83.147% and 101.146%
remaining activity at 0.0001 µM ([2]; dose 0.0001 µM, wild-type C. elegans, single replicate, read-out: in vitro complex I activity relative to solvent control, individual replicate): 90.1%
remaining activity at 0.0005 µM ([2]; dose 0.0005 µM, wild-type C. elegans, mean of replicates, read-out: in vitro complex I activity relative to solvent control, Mean): 93.4%
in vitro complex I activity relative to solvent control, individual replicate ([2]; dose 0.0005 µM, wild-type C. elegans, single replicate): 96.982% and 84.926% and 102.628%
remaining activity at 0.0005 µM ([2]; dose 0.0005 µM, wild-type C. elegans, single replicate, read-out: in vitro complex I activity relative to solvent control, individual replicate): 89.1%
remaining activity at 0.001 µM ([2]; dose 0.001 µM, wild-type C. elegans, mean of replicates, read-out: in vitro complex I activity relative to solvent control, Mean): 92.2%
in vitro complex I activity relative to solvent control, individual replicate ([2]; dose 0.001 µM, wild-type C. elegans, single replicate): 93.635% and 85.360% and 84.052% and 105.930%
remaining activity at 0.0025 µM ([2]; dose 0.0025 µM, wild-type C. elegans, mean of replicates, read-out: in vitro complex I activity relative to solvent control, Mean): 89.9%
in vitro complex I activity relative to solvent control, individual replicate ([2]; dose 0.0025 µM, wild-type C. elegans, single replicate): 94.908% and 85.958% and 78.987% and 99.629%
remaining activity at 0.005 µM ([2]; dose 0.005 µM, wild-type C. elegans, mean of replicates, read-out: in vitro complex I activity relative to solvent control, Mean): 93.8%
in vitro complex I activity relative to solvent control, individual replicate ([2]; dose 0.005 µM, wild-type C. elegans, single replicate): 110.821% and 90.887% and 82.153% and 91.307%
remaining activity at 0.013 µM ([2]; dose 0.013 µM, wild-type C. elegans, mean of replicates, read-out: in vitro complex I activity relative to solvent control, Mean): 89.4%
in vitro complex I activity relative to solvent control, individual replicate ([2]; dose 0.013 µM, wild-type C. elegans, single replicate): 104.424% and 80.938% and 77.600% and 94.576%
remaining activity at 0.025 µM ([2]; dose 0.025 µM, wild-type C. elegans, mean of replicates, read-out: in vitro complex I activity relative to solvent control, Mean): 79.6%
in vitro complex I activity relative to solvent control, individual replicate ([2]; dose 0.025 µM, wild-type C. elegans, single replicate): 79.265% and 72.113% and 85.782%
remaining activity at 0.025 µM ([2]; dose 0.025 µM, wild-type C. elegans, single replicate, read-out: in vitro complex I activity relative to solvent control, individual replicate): 81.1%
remaining activity at 0.063 µM ([2]; dose 0.063 µM, wild-type C. elegans, mean of replicates, read-out: in vitro complex I activity relative to solvent control, Mean): 59.3%
in vitro complex I activity relative to solvent control, individual replicate ([2]; dose 0.063 µM, wild-type C. elegans, single replicate): 58.500% and 52.939% and 67.015%
remaining activity at 0.063 µM ([2]; dose 0.063 µM, wild-type C. elegans, single replicate, read-out: in vitro complex I activity relative to solvent control, individual replicate): 58.9%
remaining activity at 0.125 µM ([2]; dose 0.125 µM, wild-type C. elegans, mean of replicates, read-out: in vitro complex I activity relative to solvent control, Mean): 46.1%
in vitro complex I activity relative to solvent control, individual replicate ([2]; dose 0.125 µM, wild-type C. elegans, single replicate): 44.996% and 42.086% and 50.202%
remaining activity at 0.125 µM ([2]; dose 0.125 µM, wild-type C. elegans, single replicate, read-out: in vitro complex I activity relative to solvent control, individual replicate): 47%
remaining activity at 0.313 µM ([2]; dose 0.313 µM, wild-type C. elegans, mean of replicates, read-out: in vitro complex I activity relative to solvent control, Mean): 24.1%
in vitro complex I activity relative to solvent control, individual replicate ([2]; dose 0.313 µM, wild-type C. elegans, single replicate): 25.635% and 20.651% and 26.550%
remaining activity at 0.313 µM ([2]; dose 0.313 µM, wild-type C. elegans, single replicate, read-out: in vitro complex I activity relative to solvent control, individual replicate): 23.6%
remaining activity at 0.625 µM ([2]; dose 0.625 µM, wild-type C. elegans, mean of replicates, read-out: in vitro complex I activity relative to solvent control, Mean): 15.5%
in vitro complex I activity relative to solvent control, individual replicate ([2]; dose 0.625 µM, wild-type C. elegans, single replicate): 15.276% and 17.385% and 12.484%
remaining activity at 0.625 µM ([2]; dose 0.625 µM, wild-type C. elegans, single replicate, read-out: in vitro complex I activity relative to solvent control, individual replicate): 16.8%
remaining activity at 1.5 µM ([2]; dose 1.5 µM, wild-type C. elegans, mean of replicates, read-out: in vitro complex I activity relative to solvent control, Mean): 6.88%
in vitro complex I activity relative to solvent control, individual replicate ([2]; dose 1.5 µM, wild-type C. elegans, single replicate): 4.958% and 1.160% and 6.055% and 15.327%
remaining activity at 3 µM ([2]; dose 3 µM, wild-type C. elegans, mean of replicates, read-out: in vitro complex I activity relative to solvent control, Mean): 4.54%
in vitro complex I activity relative to solvent control, individual replicate ([2]; dose 3 µM, wild-type C. elegans, single replicate): 0.589% and 7.541% and 4.494% and 5.523%
remaining activity at 15 µM ([2]; dose 15 µM, wild-type C. elegans, mean of replicates, read-out: in vitro complex I activity relative to solvent control, Mean): 3.15%
in vitro complex I activity relative to solvent control, individual replicate ([2]; dose 15 µM, wild-type C. elegans, single replicate): 6.941% and 0.000% and 2.528% and 3.137%
remaining activity at 37.5 µM ([2]; dose 37.5 µM, wild-type C. elegans, mean of replicates, read-out: in vitro complex I activity relative to solvent control, Mean): 1.66%
in vitro complex I activity relative to solvent control, individual replicate ([2]; dose 37.5 µM, wild-type C. elegans, single replicate): 3.595% and 0.000% and 3.039%
remaining activity at 75 µM ([2]; dose 75 µM, wild-type C. elegans, mean of replicates, read-out: in vitro complex I activity relative to solvent control, Mean): 1.29%
in vitro complex I activity relative to solvent control, individual replicate ([2]; dose 75 µM, wild-type C. elegans, single replicate): 0.000% and 3.223% and 1.928%
pIC50 ([2]; in vitro complex I dose response on C. elegans mitochondria, average of at least two biological replicates, fit in R (DRC), read-out: IC50 C. elegans complex I): 6.96
Log IC50 C. elegans complex I ([2]; log10 of IC50 in µM, C. elegans mitochondria): -0.96 µM
pIC50 ([2]; wild-type (N2) mitochondria, read-out: C. elegans Complex I IC50): 6.96
pIC50 ([2]; wild-type (N2) mitochondria, read-out: C. elegans complex I IC50): 6.95
pIC50 ([2]; wild-type C. elegans mitochondria, estimated from fitted dose-response curves, read-out: C. elegans Complex I IC50): 6.96
